What follows are compounds tested against T1, human ENT1 (Homo sapiens, UniProt Q99808) (assay: ENT1 binding assay (competition with Sahenta-DY647 on JAR cells)). Conditions: binned IC50.
T1 sequence (Q99808 1-456): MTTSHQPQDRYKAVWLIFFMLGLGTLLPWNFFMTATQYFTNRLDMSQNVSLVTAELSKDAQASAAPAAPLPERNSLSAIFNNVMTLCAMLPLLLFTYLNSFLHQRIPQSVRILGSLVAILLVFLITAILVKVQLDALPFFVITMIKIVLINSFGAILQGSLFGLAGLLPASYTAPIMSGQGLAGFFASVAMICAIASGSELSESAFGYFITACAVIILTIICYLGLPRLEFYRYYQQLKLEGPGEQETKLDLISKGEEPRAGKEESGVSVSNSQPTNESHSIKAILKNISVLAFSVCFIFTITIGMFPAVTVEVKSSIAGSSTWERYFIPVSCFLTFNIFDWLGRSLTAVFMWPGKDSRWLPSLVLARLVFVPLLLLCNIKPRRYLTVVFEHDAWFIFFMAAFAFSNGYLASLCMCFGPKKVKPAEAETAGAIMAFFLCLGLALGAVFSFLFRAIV
Set-up: JAR cells expressing ENT1 were bought from ATCC; host or cells: JAR cells
Experimental: Purpose. […] By measuring the fluorescence at the end of the assay we could assess the binding potency of the compounds of the present invention.
JAR cells were resuspended in the described buffer. Compounds of the present invention and Sahenta-DY647 were diluted 200× in the described buffer.
The total volume of the reaction was 100 μL (50 μL of cells, 25 μL of the compounds of the present invention and 25 μL of Sahenta-DY647) in a 96 well plate, U-bottom (Greiner®, #650-180). The plates were washed 2× by centrifugation (4 min, 400 rcf at 4° C.) in the same buffer.
`COCCNc1nc(N(CCOC)CCOC)nc2c(N3CCC(OC)CC3)nc(N(CCOC)CCOC)nc12` [Compound 128, N2,N2,N4,N6,N6-pentakis(2-methoxyethyl)-8-(4-methoxypiperidin-1-yl)pyrimido[5,4-d]pyrimidine-2,4,6-triamine] gave an IC50 of 500 to 1000 nM.
In the case of `COCCN(CCOC)c1nc(N2CCN(C)C(=O)C2)c2nc(N(CCOC)CCOC)nc(NCc3cccc(OC)c3)c2n1` [Compound 209, 4-(2,6-bis(bis(2-methoxyethyl)amino)-8-((3-methoxybenzyl)amino)pyrimido[5,4-d]pyrimidin-4-yl)-1-methylpiperazin-2-one], the IC50 is reported as < 100 nM.
`COCCN(CCOC)c1nc(N2CCC(OC)CC2)c2nc(N(CCOC)CCOC)nc(NCCc3cnc[nH]3)c2n1` [Compound 95, N4-(2-(1H-imidazol-5-yl)ethyl)-N2,N2,N6,N6-tetrakis(2-methoxyethyl)-8-(4-methoxypiperidin-1-yl)pyrimido[5,4-d]pyrimidine-2,4,6-triamine] gave an IC50 of 500 to 1000 nM.
`COCCN(CCOC)c1nc(N2CCN(c3ccc(C#N)cn3)CC2)c2nc(N(CCOC)CCOC)nc(N3CCC(OC)CC3)c2n1` [Compound 124, 6-(4-(2,6-bis(bis(2-methoxyethyl)amino)-8-(4-methoxypiperidin-1-yl)pyrimido[5,4-d]pyrimidin-4-yl)piperazin-1-yl)nicotinonitrile] showed an IC50 of 100 to 500 nM.
With `COCCN(CCOC)c1nc(N2CCC(OC)CC2)c2nc(N(CCO)CCO)nc(N3CCN(C)C(=O)C3)c2n1` [Compound 270, 4-(2-(bis(2-hydroxyethyl)amino)-6-(bis(2-methoxyethyl)amino)-8-(4-methoxypiperidin-1-yl)pyrimido[5,4-d]pyrimidin-4-yl)-1-methylpiperazin-2-one] the IC50 was 100 to 500 nM.
Compound `COCCN(CCOC)c1nc(N2CCN(C)C(=O)C2)c2nc(N3CCc4[nH]cnc4C3)nc(N3CCC(OC)CC3)c2n1` [Compound 291, 4-(2-(bis(2-methoxyethyl)amino)-8-(4-methoxypiperidin-1-yl)-6-(1,4,6,7-tetrahydro-5H-imidazo[4,5-c]pyridin-5-yl)pyrimido[5,4-d]pyrimidin-4-yl)-1-methylpiperazin-2-one] has an IC50 of 500 to 1000 nM.
With `COCCN(CCOC)c1nc(N2CCN(C)C(=O)C2)c2nc(N(CCOC)CCOC)nc(N(C)Cc3cccc(Cl)c3)c2n1` [Compound 234, 4-(2,6-bis(bis(2-methoxyethyl)amino)-8-((3-chlorobenzyl)(methyl)amino)pyrimido[5,4-d]pyrimidin-4-yl)-1-methylpiperazin-2-one] the IC50 was < 100 nM.
Compound `COCCN(CCOC)c1nc(N2CCN(c3nnc(C)o3)CC2)c2nc(N(CCOC)CCOC)nc(N3CCN(c4nnc(C)o4)CC3)c2n1` [Compound 130, N2,N2,N6,N6-tetrakis(2-methoxyethyl)-4,8-bis(4-(5-methyl-1,3,4-oxadiazol-2-yl)piperazin-1-yl)pyrimido[5,4-d]pyrimidine-2,6-diamine] has an IC50 of 500 to 1000 nM.
Compound `COCCN(CCOC)c1nc(N2CCC(OC)CC2)c2nc(N(CCOC)CCOC)nc(NCc3cccnc3)c2n1` [Compound 62, N2,N2,N6,N6-tetrakis(2-methoxyethyl)-8-(4-methoxypiperidin-1-yl)-N4-(pyridin-3-ylmethyl)pyrimido[5,4-d]pyrimidine-2,4,6-triamine] has an IC50 of 500 to 1000 nM.
For `COCCN(CCOC)c1nc(N2CCN(C)C(=O)C2)c2nc(N3CCN(S(C)(=O)=O)CC3)nc(N3CCC(OC)CC3)c2n1` [Compound 279, 4-(2-(bis(2-methoxyethyl)amino)-8-(4-methoxypiperidin-1-yl)-6-(4-(methylsulfonyl)piperazin-1-yl)pyrimido[5,4-d]pyrimidin-4-yl)-1-methylpiperazin-2-one], the IC50 was 100 to 500 nM.
`COCCN(CCOC)c1nc(N2CCN(c3ncccn3)CC2)c2nc(N(CCOC)CCOC)nc(N3CCC(OC)CC3)c2n1` [Compound 119, N2,N2,N6,N6-tetrakis(2-methoxyethyl)-4-(4-methoxypiperidin-1-yl)-8-(4-(pyrimidin-2-yl)piperazin-1-yl)pyrimido[5,4-d]pyrimidine-2,6-diamine] showed an IC50 of 500 to 1000 nM.
With `COCCN(CCOC)c1nc(N2CCC(OC)CC2)c2nc(N(CCOC)CCOC)nc(NCc3cscn3)c2n1` [Compound 66, N2,N2,N6,N6-tetrakis(2-methoxyethyl)-8-(4-methoxypiperidin-1-yl)-N4-(thiazol-4-ylmethyl)pyrimido[5,4-d]pyrimidine-2,4,6-triamine] the IC50 was 500 to 1000 nM.
With `COCCN(CCOC)c1nc(N2CCC(OC)CC2)c2nc(N(CCOC)CCOC)nc(NCc3cccc(-c4ncco4)c3)c2n1` [Compound 151, N2,N2,N6,N6-tetrakis(2-methoxyethyl)-8-(4-methoxypiperidin-1-yl)-N4-(3-(oxazol-2-yl)benzyl)pyrimido[5,4-d]pyrimidine-2,4,6-triamine] the IC50 was 100 to 500 nM.
`COCCN(CCOC)c1nc(N2CCN(C)C(=O)C2)c2nc(N(CCO)CCO)nc(N3CCC(OC)CC3)c2n1` [Compound 271, 4-(6-(bis(2-hydroxyethyl)amino)-2-(bis(2-methoxyethyl)amino)-8-(4-methoxypiperidin-1-yl)pyrimido[5,4-d]pyrimidin-4-yl)-1-methylpiperazin-2-one] was tested, and the IC50 was 500 to 1000 nM.
Compound `COCCN(CCOC)c1nc(N2CCC(OC)CC2)c2nc(N3CCn4cncc4C3)nc(N3CCN(C)C(=O)C3)c2n1` [Compound 297, 4-(6-(bis(2-methoxyethyl)amino)-2-(5,6-dihydroimidazo[1,5-a]pyrazin-7(8H)-yl)-8-(4-methoxypiperidin-1-yl)pyrimido[5,4-d]pyrimidin-4-yl)-1-methylpiperazin-2-one] has an IC50 of 100 to 500 nM.
In the case of `COCCN(CCOC)c1nc(N2CCC(OC)CC2)c2nc(N(CCOC)CCOC)nc(N(C)Cc3ccccn3)c2n1` [Compound 73, N2,N2,N6,N6-tetrakis(2-methoxyethyl)-8-(4-methoxypiperidin-1-yl)-N4-methyl-N4-(pyridin-2-ylmethyl)pyrimido[5,4-d]pyrimidine-2,4,6-triamine], the IC50 is reported as 100 to 500 nM.
Compound `COCCN(CCOC)c1nc(N2CCC(F)C2)c2nc(N(CCOC)CCOC)nc(N3CCC(OC)CC3)c2n1` (stereo not shown) [Compound 104, 4-(3-fluoropyrrolidin-1-yl)-N2,N2,N6,N6-tetrakis(2-methoxyethyl)-8-(4-methoxypiperidin-1-yl)pyrimido[5,4-d]pyrimidine-2,6-diamine] has an IC50 of 100 to 500 nM.
With `COCCN(CCOC)c1nc(N2CCC(OC)CC2)c2nc(N(CC(C)O)CC(C)O)nc(N3CCN(C)C(=O)C3)c2n1` (stereo not shown) [Compound 327, 4-(2-(bis(2-hydroxypropyl)amino)-6-(bis(2-methoxyethyl)amino)-8-(4-methoxypiperidin-1-yl)pyrimido[5,4-d]pyrimidin-4-yl)-1-methylpiperazin-2-one] the IC50 was < 100 nM.
With `COCCN(CCOC)c1nc(N2CCC(OC)CC2)c2nc(N(CCOC)CCOC)nc(NCc3cccc(F)c3)c2n1` [Compound 142, N4-(3-fluorobenzyl)-N2,N2,N6,N6-tetrakis(2-methoxyethyl)-8-(4-methoxypiperidin-1-yl)pyrimido[5,4-d]pyrimidine-2,4,6-triamine] the IC50 was < 100 nM.
`COCCN(CCOC)c1nc(N2CCN(c3ncn(C)n3)CC2)c2nc(N(CCOC)CCOC)nc(N(C)Cc3cccc(OC)c3)c2n1` [Compound 243, N4-(3-methoxybenzyl)-N2,N2,N6,N6-tetrakis(2-methoxyethyl)-N4-methyl-8-(4-(1-methyl-1H-1,2,4-triazol-3-yl)piperazin-1-yl)pyrimido[5,4-d]pyrimidine-2,4,6-triamine] was tested, and the IC50 was < 100 nM.
`COCCN(CCOC)c1nc(N2CC[C@@H](F)C2)c2nc(N(CCOC)CCOC)nc(N3CCC(OC)CC3)c2n1` [Compound 103, (R)-4-(3-fluoropyrrolidin-1-yl)-N2,N2,N6,N6-tetrakis(2-methoxyethyl)-8-(4-methoxypiperidin-1-yl)pyrimido[5,4-d]pyrimidine-2,6-diamine] showed an IC50 of 100 to 500 nM.
In the case of `COCCN(CCOC)c1nc(N2CCN(c3ncn(C)n3)CC2)c2nc(N(CCOC)CCOC)nc(NCc3ccc(F)c(F)c3)c2n1` [Compound 227, N4-(3,4-difluorobenzyl)-N2,N2,N6,N6-tetrakis(2-methoxyethyl)-8-(4-(1-methyl-1H-1,2,4-triazol-3-yl)piperazin-1-yl)pyrimido[5,4-d]pyrimidine-2,4,6-triamine], the IC50 is reported as < 100 nM.
`CCCNc1nc(N(CCOC)CCOC)nc2c(N3CCN(C)C(=O)C3)nc(N(CCOC)CCOC)nc12` [Compound 214, 4-(2,6-bis(bis(2-methoxyethyl)amino)-8-(propylamino)pyrimido[5,4-d]pyrimidin-4-yl)-1-methylpiperazin-2-one] gave an IC50 of 100 to 500 nM.
With `COCCN(CCOC)c1nc(N2CCc3c(ncn3C)C2)c2nc(N(CCOC)CCOC)nc(N3CCN(C)C(=O)C3)c2n1` [Compound 253, 4-(2,6-bis(bis(2-methoxyethyl)amino)-8-(1-methyl-1,4,6,7-tetrahydro-5H-imidazo[4,5-c]pyridin-5-yl)pyrimido[5,4-d]pyrimidin-4-yl)-1-methylpiperazin-2-one] the IC50 was 100 to 500 nM.
For `COCCN(CCOC)c1nc(N2CCN(C)C(=O)C2)c2nc(N(CCOC)CCOC)nc(NCc3ccc(F)c(F)c3)c2n1` [Compound 213, 4-(2,6-bis(bis(2-methoxyethyl)amino)-8-((3,4-difluorobenzyl)amino)pyrimido[5,4-d]pyrimidin-4-yl)-1-methylpiperazin-2-one], the IC50 was < 100 nM.

Source: patent US20230146675A1, “PYRIMIDO[5,4-d]PYRIMIDINE DERIVATIVES AS ENT INHIBITORS FOR THE TREATMENT OF CANCERS, AND COMBINATION THEREOF WITH ADENOSINE RECEPTOR ANTAGONISTS” (ITEOS BELGIUM SA, priority 2020, published 2023)
